Our source for the TGI and GI50 values is PubChem BioAssay (NCI).

Structures are written as SMILES.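 These data come from cells grown in 96-well plates and exposed to compound for 48 hours at five concentrations. Here, GI50 denotes the concentration required for 50% inhibition of growth. TGI denotes the concentration required for complete inhibition of growth.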

Some test systems named below: 786-0 renal; HCT-116 colon; NCI-H23 lung; NCI-H522 lung; OVCAR-8 ovarian; U251 CNS; HCT-15 colon; RPMI-8226 leukemia; BT-549 breast; NCI/ADR-RES ovarian.
Test in all cases: NCI-60 cell line screen, 48 h

Regarding `CCC(=O)C12OC3OC(C)(C)OC3C1OC(C)(C)O2` (configuration not stated), the TGI with 786-0 renal, in the assay with HCT-116 colon, in the assay on NCI-H23 lung, with NCI-H522 lung, in the assay on OVCAR-8 ovarian and with U251 CNS was greater than 100 µM in each case.
On to `CC/C=C\C/C=C\C/C=C\CCCCCCCC(=O)OCC(O)CO` (configuration not stated), for which the TGI was greater than 100 µM with 786-0 renal; greater than 68.3 µM in the assay on HCT-116 colon; greater than 88 µM in the assay with HCT-15 colon; greater than 100 µM in the assay with NCI-H23 lung; greater than 77.1 µM in the assay with NCI-H522 lung; greater than 100 µM in the assay on OVCAR-8 ovarian. In addition, the TGI with RPMI-8226 leukemia was greater than 77.7 µM; in the assay on U251 CNS it was greater than 73.7 µM.
Turning to `Cc1cccc(C)c1NC(=O)/C(=N/NC(N)=S)C(C)C(=O)c1ccc(Cl)cc1` (configuration not stated), the TGI with 786-0 renal, with HCT-116 colon, in the assay with HCT-15 colon, in the assay on NCI-H23 lung, with NCI-H522 lung and with OVCAR-8 ovarian was greater than 100 µM in each case. The TGI in the assay on RPMI-8226 leukemia and with U251 CNS was greater than 100 µM throughout.
With `N#CC(C#N)=C1NC(=O)CC(=O)N1`, the TGI in the assay with 786-0 renal, in the assay with HCT-116 colon, in the assay on HCT-15 colon, in the assay with NCI-H23 lung, in the assay with NCI-H522 lung and in the assay with OVCAR-8 ovarian was greater than 100 µM in each case. Besides, the TGI with RPMI-8226 leukemia and in the assay with U251 CNS was greater than 100 µM in each case.
`COc1cc2nc(N3CCCC3)nc(NCCc3ccccc3)c2cc1OC`: the GI50 is 1.71 µM in the assay on 786-0 renal; 1.75 µM in the assay on BT-549 breast; 1.67 µM with HCT-15 colon; 1.8 µM in the assay with NCI-H23 lung; 1.99 µM in the assay on NCI-H522 lung; 2.14 µM with OVCAR-8 ovarian. In addition, in the assay on RPMI-8226 leukemia, the GI50 is 2.18 µM. Moreover, the TGI in the assay with 786-0 renal was 3.21 µM; in the assay with BT-549 breast, 3.51 µM; in the assay on HCT-15 colon, 3.26 µM; with NCI-H23 lung it was 3.64 µM; with NCI-H522 lung, 4.54 µM; in the assay with OVCAR-8 ovarian, 6.05 µM. In the assay on RPMI-8226 leukemia, this compound gave a TGI of 5.75 µM.
`Fc1ccc(C2SCc3nc4ccccc4n32)c(F)c1` (configuration not stated): the TGI with 786-0 renal, with HCT-116 colon, with HCT-15 colon, with NCI-H23 lung, with NCI-H522 lung and with OVCAR-8 ovarian was greater than 100 µM each time. The TGI with RPMI-8226 leukemia and with U251 CNS was greater than 100 µM throughout.
Take `Fc1ccc(/C=N/n2c(-c3ccc(F)c(Cl)c3)nn(CNc3ccccc3C(F)(F)F)c2=S)cc1`: the GI50 is 75.4 µM with 786-0 renal; 55.4 µM with HCT-116 colon; 79.4 µM in the assay on HCT-15 colon; 61.7 µM with NCI-H23 lung; 24.4 µM with NCI-H522 lung; 41.2 µM in the assay on NCI/ADR-RES ovarian. For the same compound, the GI50 in the assay with OVCAR-8 ovarian was 43.1 µM; with RPMI-8226 leukemia, 38.6 µM; with U251 CNS it was 69.1 µM. In addition, the TGI is greater than 100 µM in the assay with 786-0 renal; greater than 100 µM in the assay on HCT-116 colon; greater than 100 µM in the assay on HCT-15 colon; greater than 100 µM with NCI-H23 lung; 76.3 µM in the assay on NCI-H522 lung; greater than 100 µM in the assay on NCI/ADR-RES ovarian. Also, the TGI with OVCAR-8 ovarian, with RPMI-8226 leukemia and with U251 CNS was greater than 100 µM each time.
`COc1cc(C(=O)C/C(CCC(=O)Nc2ccccc2[N+](=O)[O-])=N\NC(N)=O)ccc1O`: the TGI with 786-0 renal, with HCT-116 colon, with HCT-15 colon, with NCI-H23 lung, in the assay on NCI-H522 lung and with OVCAR-8 ovarian was greater than 100 µM in each case. In addition, the TGI with RPMI-8226 leukemia and in the assay on U251 CNS was greater than 100 µM throughout.
As for `CCN(CC)CC1c2ccccc2C(CNc2ccccc2)N1C` (configuration not stated), the TGI in the assay with 786-0 renal, in the assay with HCT-15 colon, with NCI-H23 lung, in the assay with NCI-H522 lung, with OVCAR-8 ovarian and with RPMI-8226 leukemia was greater than 100 µM each time.
With `COc1ccc(-c2[nH]c3ccccc3c2-c2ccc(OC)cc2)cc1`, the GI50 was 2.95 µM in the assay on 786-0 renal; 3.93 µM in the assay on HCT-116 colon; 3.56 µM in the assay with HCT-15 colon; 6.26 µM in the assay on NCI-H23 lung; 12 µM with NCI-H522 lung; 3.82 µM in the assay on NCI/ADR-RES ovarian. In addition, the GI50 in the assay on OVCAR-8 ovarian was 10.3 µM; in the assay on RPMI-8226 leukemia it was 3.27 µM; in the assay with U251 CNS it was 4.54 µM. In addition, the TGI stood at 7.64 µM in the assay on 786-0 renal; 14.6 µM in the assay with HCT-116 colon; 14.1 µM with HCT-15 colon; 26.2 µM in the assay on NCI-H23 lung; 40.7 µM in the assay with NCI-H522 lung; 15 µM with NCI/ADR-RES ovarian. The results for the TGI in the assay with OVCAR-8 ovarian, in the assay on RPMI-8226 leukemia and in the assay on U251 CNS were 35.8 µM, 69.5 µM and 16.8 µM, respectively.
Turning to `CC1(O)C=CC(=O)C=C1`, the TGI was 49.6 µM in the assay with 786-0 renal; greater than 100 µM with HCT-116 colon; 31.7 µM in the assay with HCT-15 colon; 93.8 µM in the assay on NCI-H23 lung; 33.7 µM in the assay with NCI-H522 lung; greater than 68.8 µM with OVCAR-8 ovarian. For the same compound, the results for the TGI with RPMI-8226 leukemia and in the assay with U251 CNS were greater than 100 µM and 48.1 µM, respectively.
Take `COc1cc2c3c(n(C)c(=O)c2cc1OC)-c1cc2c(cc1/C3=C\CCCCN1C(=O)c3ccccc3C1=O)OCO2`: the GI50 in the assay on 786-0 renal is 16 µM; with HCT-116 colon it was 22.8 µM; with HCT-15 colon, 14.8 µM; in the assay with NCI-H23 lung, 1.34 µM; with NCI/ADR-RES ovarian, 24.1 µM; in the assay on OVCAR-8 ovarian, 17.1 µM. Moreover, the GI50 with RPMI-8226 leukemia was 8.5 µM; in the assay with U251 CNS, 10.6 µM. Besides, the TGI was greater than 100 µM with 786-0 renal; greater than 100 µM in the assay on HCT-116 colon; 50.5 µM with HCT-15 colon; 19.2 µM with NCI-H23 lung; greater than 100 µM in the assay on NCI/ADR-RES ovarian; greater than 100 µM in the assay with OVCAR-8 ovarian. Also, the TGI with RPMI-8226 leukemia is greater than 100 µM; in the assay with U251 CNS it was 25.8 µM.
Consider `COc1ccc(-c2cc(Cc3cccs3)c(=O)[nH]n2)cc1`, for which the TGI in the assay on 786-0 renal, in the assay with HCT-116 colon, in the assay on HCT-15 colon, in the assay on NCI-H23 lung, in the assay with OVCAR-8 ovarian and in the assay on U251 CNS was greater than 100 µM in each case.
